Test results: paper PMC10517462, “Small molecule targeting of the p38/Mk2 stress signaling pathways to improve cancer treatment” (BMC Cancer, 2023)

Key:
[1] = Pharmacokinetics of MK2.III in CD-1 mice (HPLC-MS/MS); type: in vivo, CD-1 mouse
Procedure: We investigated the pharmacokinetics (PK) and bioavailability of small molecules (MK2.III) with intraperitoneal and intravenous injection before studying its tumor suppressor properties in combination with DNA-damaging agents. For this set of experiments CD-1 mouse line (male,7 weeks, body weight of 23–25 g, n = 198, Charles River) was used with a one-time intraperitoneal injection (IP) of 2, 10, and 50 mg/kg doses of the MK2.III or 2 mg/kg intravenous injection (IV) of the same drug. The small molecule was prepared using PBS containing 10% DMSO. MK2.III was isolated from mouse serum using protein settling method with acetonitrile and drug concentrations were detected using HPLC – MS/MS.
Blood samples were obtained from the retro-orbital sinus (at […] for IV groups; at […] for IP groups, respectively) in polypropylene tubes containing 20 μl of 5% EDTA. Blood plasma was separated by centrifugation at 1500 g for 10 min and was stored at -80 °C until analysis. Data were obtained from six animals per time.
An Agilent 1260 Infinity system, a hybrid triple-quadrupole mass spectrometer, and QTRAP 5500 electrospray ionization were used for determining the MK2.III concentration in blood plasma. Separations were achieved using a YMC Triart C18 50 × 2,1 mm, 1,9 μm column. The mobile phase consisted of A (0.1% aqueous formic acid) and B (0.1% formic acid in acetonitrile). The gradient elution t = 0, A:B 95:5; t = 2 min A:B 5:95; t = 2.1 A:B 5:95; t = 2.2 A:B 95:5; t = 2.8 A:B 95:5; flow rate was 0.5 mL min − 1; Retention time—2.8 min. The injection volume was 2 μL. The temperature of the column was set at 40 °C. Tolbutamide was selected as an internal standard. Thawed plasma (45 μL) was transferred to a microtube (1.1 mL volume), treated with a standard solution (5 μL) of the analytes in acetonitrile: water (1:1), stirred on a vortex mixer for 10 s, treated with tolbutamide solution (200 ng/ml), stirred again on the vortex mixer for 10 s, and then proteins were precipitated in the cold at + 4 °C for 15 min, centrifuged for 10 min at 1500 g. The supernatant (150 µl) was transferred to a clean 96-well plate for HPLC–MS/MS analysis. Samples were stored at a temperature not exceeding -70 °C until analysis. The calculation of pharmacokinetic parameters was performed by using Phoenix® WinNonlin® software, version 6.3 (Pharsight Corp., Cary, NC, USA).

[2] = tested on: SW620 colorectal cancer cell line; assay: CCK8 cell viability assay, SW620; type: cell-based, human; conditions: MK2.III 1 µM or etoposide 150 µM alone, 24 h
Procedure: To assess the effect of MK2.III kinase inhibitor and the etoposide (VP-16) on the viability of different cancer cell lines, cells were seeded in 96-well plates in a concentration of 5000 cells per well. After 12 h, etoposide and 1 μM MK2.III diluted in culture media were added into the wells for 24 h. NCI-H69 cells were exposed to a series of etoposide concentrations from 20 μM to 150 μM. MDA-MB-231, SW 620, and SW 480 cell lines were incubated with 150 μM etoposide. After treatment, 10 μL of the CCK-8 reagent (96992, Sigma) was added to each well for 1 h followed by optical density measurement at 450 nm using hybrid plate reader Synergy H1.

[3] = 2 mg/kg intraperitoneal, mice serum
[4] = 10 mg/kg intraperitoneal, mice serum
[5] = 50 mg/kg intraperitoneal, mice serum

AUClast [1, 3]: 1,99 hr*ng/ml | Cmax [1, 3]: 2,15 ng/ml | MRTlast [1, 3]: 1,28 hr | Tmax [1, 3]: 2 h | Highest concentration of the drug in serum ([1]; 2 mg/kg intravenous, at the time of the injection): 11 ng/mL | Serum concentration ([1]; 2 mg/kg intravenous, one-hour interval): 2.15 ng/mL | AUCinf [1, 4]: 203 ng·h/mL | AUClast [1, 4]: 130 ng·h/mL | Cl/F [1, 4]: 821 mL/min/kg | Cmax [1, 4]: 38,3 ng/ml | Kel [1, 4]: 0,05 1/hr | MRTinf [1, 4]: 21,7 hr | MRTlast [1, 4]: 8,59 hr | T1/2 [1, 4]: 14,4 hr | Tmax [1, 4]: 0,5 hr | Vz/F [1, 4]: 1027 L/kg | AUCinf [1, 5]: 548 ng·h/mL | AUClast [1, 5]: 227 ng·h/mL | Cl/F [1, 5]: 1520 mL/min/kg | Cmax [1, 5]: 42,4 ng/ml | Kel [1, 5]: 0,02 1/hr | MRTinf [1, 5]: 42,3 hr | MRTlast [1, 5]: 10,3 hr | T1/2 [1, 5]: 28,3 hr | Tmax [1, 5]: 0,5 hr | Vz/F [1, 5]: 3718 L/kg | Cmax ([1]; higher doses (10 and 50 mg/kg) intraperitoneal, within 30 min after injection): around 40 ng/ml | Linearity of pharmacokinetics ([1]; range of 2-50 mg/kg dose, intraperitoneal): does not represent linearity
SMILES: O=C1NCCc2[nH]c(-c3ccnc(-c4cnc5ccccc5c4)c3)cc21 [MK2.III]
Decrease of viability by single agent [2]: 30%
